Measurements published in patent US20250288543A1, “METHODS OF ENHANCING BENEFICIAL SHORT-CHAIN AND MEDIUM-CHAIN FATTY ACIDS PRODUCTION BY GUT MICROBIOME” (Arizona Board of Regents on Behalf of Arizona State …, priority 2024, published 2025).

Columns and labels:
[1] = mechanism related to vagal afferent; cited from earlier work
human colon microbiome = test: In vitro bioreactors inoculated with human feces: chain elongation of acetate with ethanol or lactate to butyrate and caproate; assay type: cell-based; conditions: for Methane concentrations: bioreactor headspace, over 7 days, FIG. 4; for Production of MCFAs: pH 6.5 (descending colon), higher concentrations; for SCFA and MCFA production: varied conditions of the large intestine (pH 5.5 and 6.5), FIGS. 6A-6P
Text: In microbial chain elongation, acetate, an abundant short-chain fatty acid in the colon, is elongated via reverse β-oxidation using a more reduced compound, such as ethanol or lactate to butyrate, caproate, and caprylate (C8). FIG. 1 depicts known microbial pathways for production of butyrate in the human colon. FIG. 2 depicts a proposed pathway for production of butyrate (and caproate). In vitro bioreactors were setup using feces composited from multiple human donors. Gas composition in the bioreactors' headspace was analyzed for H2, CO2, and CH4 using gas chromatography (GC). The concentrations of volatile fatty acids (VFAs), lactate, ethanol, were measured using high performance liquid chromatography (HPLC). 16S rRNA gene from Bacteria and Archaea was sequenced using the PacBio. The ability of the human colon microbiome to carry out chain elongation reactions was probed in bioreactor experiments. Bioreactors consisted of 120 mL glass serum bottles containing 50 mL of reduced anaerobic mineral medium prepared using the Hungate technique. The medium contained the following stock solutions per liter: 10 mL of salts, 1 mL of trace element A, 1 mL of trace element B, and 1 mL of vitamin mix. Sodium sulfide nonahydrate (0.2 mM) and L-cysteine (0.4 mM) were used as reducing agents. The medium was buffered with 15 mM 4-(2-hydroxyethyl)-1-piperazineethanesulfonic acid (HEPES) and 15 mM sodium bicarbonate. The medium pH was adjusted to 5.5 or 6.5 using a 10 N NaOH solution. The medium was bottled using a gas composition of 20% CO2 and 80% N2. The experimental conditions and controls are shown in Table 1 and were tested in triplicate. The tested concentrations of short-chain fatty acids (60 mM acetate, 20 mM propionate, 20 mM butyrate) are within the typical range detected in the human colon. For ethanol and lactate (electron donors in chain elongation), we tested 4 mM, a low but physiological relevant concentration and a high concentration of 40 mM. The high concentration of ethanol (40 mM) was selected based on existing chain elongation literature (Yin et al. 2017; Coma et al. 2016; […], and Buisman 2008; Robles et al. 2021; Joshi et al. 2021) and was strategically employed to enhance the activity of putative chain-elongating microorganisms. […] The slurry was prepared by mixing one-part reduced anaerobic mineral medium and one-part feces from a composite sample containing fecal samples from multiple healthy donors as described in the Supporting Information. In one condition, the fecal slurry was filtered through a 200 μm filter before inoculation. In condition with 60 mM acetate+40 mM ethanol+MCE culture at pH 6.5, a chain elongation culture derived from soil (Joshi et al. 2021) was also inoculated. The pH was measured using 0.5 mL samples using an OrionTM Versa Star ProTM Benchtop pH Meter (Thermo Scientific, Waltham, MA, USA) equipped with an Orion economy series pH electrode. The pH meter was calibrated with Orion pH 4.01, 7.00, and 10.01 standard solutions. Samples for HPLC consisted of 0.5 mL of supernatant from bioreactors filtered through a 0.2 μm PDVF filter (MDI Membrane Technologies, Harrisburg, PA, USA). The concentrations of formate, acetate, propionate, isobutyrate, butyrate, isovalerate, valerate, isocaproate, caproate, heptanoate, lactate, ethanol, butanol, and hexanol were determined using a high-performance liquid chromatograph (HPLC, Agilent, Santa Clara, CA, USA) with a photodiode array detector (DAD) set at 210 nm and a refractive index detector (RID). The HPLC was fitted with an Aminex HPX-87H column 300×7.8 mm (Bio-Rad Laboratories, Hercules, CA, USA) and operated with an eluent of 2.5 mM H2SO4 at a flow rate of 0.6 mL per minute for a duration of 80 minutes. The oven temperature was constant at […]. The calibration range for fatty acids was 0.25-10 mM, and the calibration range for the alcohols was 2.5-50 mM. […]

[2] = rat model of diabetes, hexanoate as sole FA source; cited from earlier work
[3] = physiologically relevant concentration of ethanol and lactate, FIGS. 5A and 5B

Compound	Efficacy in suppressing food intake (rank order) [1]	Methane concentrations (human colon microbiome)	Production of MCFAs (human colon microbiome)	Butyrate production via chain elongation (human colon microbiome; [3])	SCFA and MCFA production (human colon microbiome)	further results
CC(=O)O [acetate]	butyrate>propionate>acetate					
CCO [ethanol]		higher at higher concentrations	significant increase	occurred	successfully increases	Conversion of acetate and ethanol to butyrate and caproate via chain elongation, time of occurrence (human colon microbiome; acetate + ethanol, fecal bioreactors, FIGS. 3A and 3B): within one day; Chain elongation activity with filtered feces (human colon microbiome; acetate + ethanol, feces filtered to remove larger particles, FIGS. 3C and 3D): did not affect the chain elongation activity; Caproate production (human colon microbiome; [3]): caproate was produced only when ethanol was the electron donor
CCCCCC(=O)O [caproic, caproic acid]						Contractile function of hearts perfused with glucose alone [2]: normalized contractile function
CC(O)C(=O)O (stereo not shown) [lactate]		higher at higher concentrations	significant increase	occurred	successfully increases	Metabolites produced with lactate as the electron donor (human colon microbiome; acetate + lactate, FIG. 3B): metabolic shift was observed towards propionate and butyrate production; Production of butyrate and other SCFAs via chain elongation (human colon microbiome; pH 5.5 (ascending colon)): a better substrate
CCC(=O)O [propionate]	butyrate>propionate>acetate					
